Values of other authors in patent publication US20090241221A1, “TANDEM REAPEAT DNA CONSTRUCTS PRODUCING PROTEINS THAT ATTACK PLANT PATHOGENIC VIRUSES, FUNGI, AND BACTERIA BY DISRUPTING TRANSCRIPTION FACTORS ESSENTIAL FOR REPLICATION THEREOF IN PLANTS” (priority 2008, published 2009).

System: Magnaporthe grisea
Details: PA treated plants; doses in the range of 0.5 mg/mL; cited from earlier work

## O=C(O)c1ccccn1 [picolinic acid, 2-pyridine carboxylic acid]
  resistance against M. grisea: enhanced
